pIC50: −log10 of the molar value. Read-outs that look alike come from different tables or passages of the source.
Key:
[1] = test system: p-pRb/S780; assay: p-pRb/S780 ELISA Cellular Assay (CDK4 ELISA assay); type: cell-based; settings: cells treated for 24 hrs
Method: Biological Activity p-pRb/S780 ELISA Cellular Assay
Maxisorp plates (Nunc 442404) are coated with 50 ul of 1 ug/mL total phospholated Retinoblast Protein (pRb) antibody (4H1 Cell Signaling 9309L) diluted in DPBS (Phosphate Buffered Saline) overnight at 4° C. The next day plates are blocked with Superblock in TBST (Pierce 37535) for one hour to overnight—changing block once during that time. Cells are plated at 50-60% confluency in a 96 well plate (Corning 3585) in 100 uL complete media (media containing fetal bovine serum (Gibco 1600-044), 2 mM L-Glutamine (Gibco 25030), and 1% Penicillin/Streptomycin (Gibco 15140-122) and grown overnight in a humidified chamber at 37° C. and 5% CO2. Compounds (in DMSO) are diluted in media to create a 7 point dilution series of compound with concentrations ranging from 110 uM to 0.027 uM. 10 ul of the diluted compounds are added to the cells, with final concentrations on cells ranging from 10 uM to 0.002 uM. Cells are treated for 24 hrs in a humidified chamber at 37° C. and 5% CO2. Following compound incubation, cells are lysed with 40 uL/well lysis buffer (50 mM Tris-HCL pH 7.5 (Invitrogen 15567-027), 120 mM NaCl (Promega V4221), 1 mM EDTA (Gibco 15575-038), 6 mM EGTA (Fisher 02783-100), 1% Nonidet P40 (Fluka R02771). Plates are placed on Titerplate shaker (Labline model 4625) for 5 minutes at 4° C. to lyse cells. After lysis, 10 ul of cell lysate and 50 ul 1×PBS/10% Superblock (Gibco 10010 and Pierce 37535) is added to each well of the precoated and blocked Maxisorp plate and allowed to bind at room temperature for 2 hours on Oribtron Rotator II (Boekel Industries Model 260250). Plates are then washed 3× with 1×TBST (Teknova T9201) using Biotek platewasher equipped with a Biostack. The final wash is not aspirated. The final wash is removed by flicking off and tapping plate on paper towels. ppRbS780 antibody (Cell Signaling 9307L) is diluted 1:1000 in 1×PBS/10% Superblock (Gibco 10010 and Pierce 37535) and 50 ul is added to each well. Plates are then incubated 1 hour on Oribtron Rotator II (Boekel Industries Model 260250). Plates are then washed as previously described. Goat anti-rabbit HRP (Promega W401B) is diluted 1:2500 1×PBS/10% Superblock (Gibco 10010 and Pierce 37535) and 50 ul is added to each well. Plates are then incubated 30 minutes on Oribtron Rotator II. Plates are then washed as previously described. 50 uL Ultra TMB ELISA (Pierce 34028) is then added to each well. Plates are incubated 5-20 minutes until blue color develops. 50 ul 2M Sulfuric acid (Mallinckrodt 2468-46) is then added to each well to stop the reaction. Absorbance at 450 nm for each plate is read on Spectramax Plus (Molecular Devices).

[2] = target: hCDK1/B (Homo sapiens, UniProt P06493); assay: hCDK1/B; type: biochemical
[3] = target: CDK4 (Homo sapiens, UniProt P11802); assay: CDK4 HTRF; type: biochemical
[4] = target: CDK2 cyA (Homo sapiens, UniProt P24941); assay: CDK2 cyA IMAP; type: biochemical
[5] = Table 2, read-out: p_pRb Cap EL/ IC50_ppRbinh
[6] = Table 2, read-out: CDK4 HTRF/ IC50
[7] = Table 2, read-out: CDK2cyA IMAP/ IC50
[8] = Table 1, read-out: CDK4 ELISA assay IC50
[9] = Table 1, read-out: CDK2 cyA IMAP

Sequence of CDK4 (P11802 whole entry): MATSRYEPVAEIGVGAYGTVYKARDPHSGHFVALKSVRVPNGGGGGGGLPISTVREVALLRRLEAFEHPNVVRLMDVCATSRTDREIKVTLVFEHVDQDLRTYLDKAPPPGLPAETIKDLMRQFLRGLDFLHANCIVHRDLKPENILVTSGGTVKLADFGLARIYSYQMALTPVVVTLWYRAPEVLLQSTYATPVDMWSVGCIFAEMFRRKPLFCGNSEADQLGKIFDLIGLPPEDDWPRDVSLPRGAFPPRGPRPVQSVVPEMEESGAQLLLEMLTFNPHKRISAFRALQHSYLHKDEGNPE
Sequence of CDK4 (P24385 whole entry partner): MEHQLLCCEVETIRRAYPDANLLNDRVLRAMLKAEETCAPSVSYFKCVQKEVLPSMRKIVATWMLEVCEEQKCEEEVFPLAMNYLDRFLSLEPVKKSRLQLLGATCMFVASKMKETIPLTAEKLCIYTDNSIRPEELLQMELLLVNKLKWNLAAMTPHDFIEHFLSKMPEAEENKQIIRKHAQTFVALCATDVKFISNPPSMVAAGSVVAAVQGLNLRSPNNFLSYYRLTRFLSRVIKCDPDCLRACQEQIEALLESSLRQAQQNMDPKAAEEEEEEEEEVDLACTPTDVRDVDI
Sequence of hCDK1/B (P06493 whole entry): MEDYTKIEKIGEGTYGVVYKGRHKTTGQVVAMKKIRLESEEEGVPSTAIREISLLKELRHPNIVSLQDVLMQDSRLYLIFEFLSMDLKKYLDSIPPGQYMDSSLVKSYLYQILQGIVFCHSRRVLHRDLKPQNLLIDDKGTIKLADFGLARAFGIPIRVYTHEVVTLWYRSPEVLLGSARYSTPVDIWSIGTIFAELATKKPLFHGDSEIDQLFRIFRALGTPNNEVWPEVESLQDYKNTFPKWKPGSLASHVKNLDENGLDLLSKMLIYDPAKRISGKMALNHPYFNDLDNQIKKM
Sequence of hCDK1/B (P14635 whole entry partner): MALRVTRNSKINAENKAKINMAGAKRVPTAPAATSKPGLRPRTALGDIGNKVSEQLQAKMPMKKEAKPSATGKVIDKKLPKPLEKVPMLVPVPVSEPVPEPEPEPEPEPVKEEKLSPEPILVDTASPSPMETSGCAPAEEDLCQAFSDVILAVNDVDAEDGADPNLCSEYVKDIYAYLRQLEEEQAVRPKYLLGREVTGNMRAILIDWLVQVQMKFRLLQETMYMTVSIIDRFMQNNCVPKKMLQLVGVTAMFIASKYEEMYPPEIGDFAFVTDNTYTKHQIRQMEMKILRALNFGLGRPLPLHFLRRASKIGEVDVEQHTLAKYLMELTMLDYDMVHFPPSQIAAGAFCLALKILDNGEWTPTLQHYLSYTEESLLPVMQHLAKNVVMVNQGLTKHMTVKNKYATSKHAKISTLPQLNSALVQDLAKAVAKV

pIC50 [1, 5]	pIC50 ([2]; Table 2)	pIC50 [3, 6]	pIC50 [4, 7]	pIC50 [1, 8]	pIC50 ([2]; Table 1)	pIC50 ([3]; Table 1, read-out: CDK4 HTRF)	pIC50 [4, 9]	Compound
> 6.00	> 7.30	> 7.30	> 7.30	–	–	–	–	CC(C)c1n[nH]cc1-c1ccnc(NC2CCCCC2)n1 [Example 166]
> 4.82	≤ 4.82	> 5.00	≤ 4.82	–	–	–	–	Cc1n[nH]cc1-c1ccnc(NC2CCCN(C(=O)OC(C)(C)C)C2)n1 (centres unmarked) [Example 115]
> 4.82	≤ 4.82	> 5.00	≤ 4.82	–	–	–	–	Cc1n[nH]cc1-c1ccnc(NCCC2CCCN2C)n1 (centres unmarked) [Example 113]
> 5.30	> 6.30	> 7.30	> 6.00	–	–	–	–	CC(C)c1n[nH]cc1-c1ccnc(NC2CCNCC2)n1 [Example 141]
> 4.82	> 5.00	> 5.30	> 5.00	–	–	–	–	CCCCNc1nccc(-c2c[nH]nc2C)n1 [Example 119]
> 4.82	> 5.00	> 5.30	≤ 4.82	–	–	–	–	CC(C)c1n[nH]cc1-c1ccnc(N[C@H]2CCCc3ccccc32)n1 [Example 178]
> 6.00	> 6.30	> 7.30	> 6.30	–	–	–	–	CC(C)c1n[nH]cc1-c1ccnc(N[C@@H]2CCc3ccccc32)n1 [Example 176, (R)-Indan-1-yl-[4-(3-isopropyl-1H-pyrazol-4-yl)-pyrimidin-2-yl]-amine]
> 4.82	> 5.30	> 6.00	> 5.30	–	–	–	–	Cc1n[nH]cc1-c1ccnc(NCc2cc(F)cc(F)c2)n1 [Example 135]
> 4.82	≤ 4.82	> 4.82	≤ 4.82	–	–	–	–	Cc1n[nH]cc1-c1ccnc(NCCCN2CCCC2)n1 [Example 128]
> 4.82	≤ 4.82	> 4.82	≤ 4.82	–	–	–	–	Cc1n[nH]cc1-c1ccnc(NCC(=O)OC(C)(C)C)n1 [Example 129]
> 5.30	> 6.30	> 7.30	> 6.30	–	–	–	–	CC(C)c1n[nH]cc1-c1ccnc(NC2Cc3ccccc3C2)n1 [Example 170]
> 4.82	≤ 4.82	> 5.30	≤ 4.82	–	–	–	–	Cc1cc(C)cc(CNc2nccc(-c3c[nH]nc3C)n2)c1 [Example 134]
> 4.82	> 5.30	> 5.30	≤ 4.82	–	–	–	–	CC(C)c1n[nH]cc1-c1ccnc(NCCN(C(C)C)C(C)C)n1 [Example 146]
> 4.82	≤ 4.82	> 5.00	≤ 4.82	–	–	–	–	COc1cccc(CNc2nccc(-c3c[nH]nc3C)n2)c1 [Example 107]
> 4.82	≤ 4.82	> 4.82	≤ 4.82	–	–	–	–	Cc1n[nH]cc1-c1ccnc(NCCCN2CCCC2=O)n1 [Example 131]
> 6.00	> 6.30	> 7.00	> 6.30	–	–	–	–	CC(C)c1n[nH]cc1-c1ccnc(NC2CCc3cc(F)ccc32)n1 (centres unmarked) [Example 189]
> 5.30	≤ 4.82	> 7.00	≤ 4.82	–	–	–	–	CC(C)c1n[nH]cc1-c1ccnc(NC2CCC(C)(C)c3ccccc32)n1 (centres unmarked) [Example 188]
> 5.30	> 5.30	> 6.30	> 6.30	–	–	–	–	CC(C)c1n[nH]cc1-c1ccnc(NC2CCc3cc(Cl)ccc32)n1 (centres unmarked) [Example 190]
> 5.30	> 6.30	> 7.00	> 6.00	–	–	–	–	CC(C)c1n[nH]cc1-c1ccnc(NC2CCCCC2C)n1 (centres unmarked) [Example 160]
> 4.82	> 5.00	> 5.30	> 4.82	–	–	–	–	Cc1n[nH]cc1-c1ccnc(NCC2CCCCCC2)n1 [Example 105]
> 5.00	> 6.00	> 6.30	> 5.30	–	–	–	–	CCC(Nc1nccc(-c2c[nH]nc2C(C)C)n1)c1ccccc1 (centres unmarked) [Example 151]
> 4.82	> 4.82	> 5.30	> 4.82	–	–	–	–	Cc1n[nH]cc1-c1ccnc(NCCCO)n1 [Example 121]

Continued, molecule first:

Compound	pIC50 [1, 5]	pIC50 ([2]; Table 2)	pIC50 [3, 6]	pIC50 [4, 7]	pIC50 [1, 8]	pIC50 ([2]; Table 1)	pIC50 ([3]; Table 1, read-out: CDK4 HTRF)	pIC50 [4, 9]
CC(C)c1n[nH]cc1-c1ccnc(NC2CCN(Cc3ccccc3)CC2)n1 [Example 85]	> 5.00	> 6.30	> 7.30	> 6.00	–	–	–	–
CC(C)c1n[nH]cc1-c1ccnc(NC2CN3CCC2CC3)n1 (centres unmarked) [Example 159]	> 5.30	> 6.30	> 7.30	> 5.30	–	–	–	–
Cc1n[nH]cc1-c1ccnc(NCc2ccc3c(c2)OCO3)n1 [Example 102]	> 4.82	> 5.00	> 5.30	> 5.00	–	–	–	–
CC(C)c1[nH]ncc1-c1ccnc(NCCCNC2CCCCC2)c1 [Example 51]	–	–	–	–	> 4.82	≤ 4.82	> 5.30	≤ 4.82
Cc1n[nH]cc1-c1ccnc(NCC2CCCCC2)n1 [Example 103]	> 4.82	> 5.00	> 5.30	> 5.00	–	–	–	–
COc1ccc(CNc2nccc(-c3c[nH]nc3C)n2)cc1 [Example 100]	> 4.82	> 4.82	> 5.30	> 4.82	–	–	–	–
CC(C)c1[nH]ncc1-c1ccnc(NCC2CCNCC2)c1 [Example 47]	–	–	–	–	> 4.82	≤ 4.82	> 5.00	≤ 4.82
CC(C)c1[nH]ncc1-c1ccnc(NCCC2CCCN2C)c1 (centres unmarked) [Example 42]	–	–	–	–	> 4.82	≤ 4.82	> 5.30	≤ 4.82
CC(C)c1[nH]ncc1-c1ccnc(NCc2cccc(C(F)(F)F)c2)c1 [Example 25]	–	–	–	–	> 7.00	> 5.30	> 5.30	> 5.30
Cc1n[nH]cc1-c1ccnc(NCc2ccncc2)n1 [Example 104]	> 4.82	> 4.82	> 5.30	> 4.82	–	–	–	–
CC(C)c1[nH]ncc1-c1ccnc(NCCN2CCCCC2)c1 [Example 31]	–	–	–	–	> 4.82	≤ 4.82	> 5.30	≤ 4.82
Cc1ccc(CNc2cc(-c3cn[nH]c3C3CCCC3)ccn2)cc1 [Example 64]	–	–	–	–	> 5.30	> 5.30	> 5.00	> 5.30
Cc1n[nH]cc1-c1ccnc(NCCc2ccccc2)n1 [Example 91]	> 4.82	> 5.00	> 6.00	> 5.00	–	–	–	–
CC(C)c1[nH]ncc1-c1ccnc(NCc2ccc3c(c2)OCO3)c1 [Example 35]	–	–	–	–	> 4.82	> 5.30	> 5.30	> 5.30
Cc1n[nH]cc1-c1ccnc(NCc2cccc(C(F)(F)F)c2)n1 [Example 89]	> 4.82	> 5.00	> 5.30	> 5.00	–	–	–	–
Cc1n[nH]cc1-c1ccnc(NCc2ccc(F)cc2)n1 [Example 95]	> 4.82	> 5.00	> 5.30	> 5.00	–	–	–	–
CC(C)c1[nH]ncc1-c1ccnc(NC2CCC2)c1 [Example 2]	–	–	–	–	> 6.00	> 6.30	> 6.30	> 6.30
CC(C)c1[nH]ncc1-c1ccnc(NCCN2CCOCC2)c1 [Example 32]	–	–	–	–	> 4.82	≤ 4.82	> 5.30	> 5.00
CC(C)c1[nH]ncc1-c1ccnc(NCCCN(C)C)c1 [Example 16]	–	–	–	–	> 4.82	≤ 4.82	> 5.30	≤ 4.82
